Experimental data from article PMC7956430, “Cytotoxicity and Apoptosis Effects of Curcumin Analogue (2E,6E)-2,6-Bis(2,3-Dimethoxybenzylidine) Cyclohexanone (DMCH) on Human Colon Cancer Cells HT29 and SW620 In Vitro” (Molecules, 2021).
Where two headings read alike, the source gives them in different places. Each block holds one molecule with its values, some of them ahead of it.

Key:
HT29 [1] = assay: Acridine orange/propidium iodide (AO/PI) double staining assay; assay type: cell-based, human; details: HT29, DMCH at IC50, as incubation time increased (48 h, 72 h), p < 0.05
Protocol: (§1) Acridine orange/propidium iodide (AO/PI) double staining assay was performed on colon cancer cell lines to determine the mode of cell death microscopically. HT29 and SW620 cell lines were seeded in a 6-well plate at a density of 2 × 10^5 cells/well. Then, cells were treated with DMCH sample according to 48 h and 72 h concentrations. The treatment-free culture was used as a negative control, and cells were detached and collected at the end of each incubation time. Then, cells were washed with PBS and incubated with a 1:1 ratio of acridine orange (10 µg/mL) and propidium iodide (10 µg/mL). An amount of 10 µL of incubated suspension cells was placed on a slide and viewed immediately under a fluorescent microscope (Nikon FC-35DX, Nikon, Tokyo, Japan).

SW620 [2] = assay: as above; assay type: cell-based, human; details: SW620, DMCH at IC50, as incubation time increased (48 h, 72 h), p < 0.05
Protocol: as §1

[3] = system: apoptosis-related proteins in HT29; assay: Human apoptosis proteome profiler; assay type: cell-based; details: HT29, DMCH (IC50) for 48 h
Protocol: (§2) Colon cancer cell lines SW620 and HT29 that had been treated with DMCH for 48 h were investigated for the expression profiles of apoptosis-related proteins. This was conducted using the Human Apoptosis Array Kit (R&D Systems, Minneapolis, MN, USA). Firstly, the proteins from both cells were extracted using 600 µL of RIPA buffer (50 mM Tris-HCl, 150 mM NaCl, 1.0% TritonX-100, 0.5% sodium deoxycholate, 0.1% SDS) supplemented with 10 mg of pre-made protease inhibitor cocktails (Roche, Mississauga, ON, Canada). After that, the proteins were quantified using the Bradford assay (Sigma, St. Louis, MO, USA). Then, membranes were blocked by blocking buffer for an hour. At the same time, the proteins were prepared with the addition of 1 mL Lysis Buffer 17 to the protein lysate. The prepared protein was loaded onto the membrane and was incubated at 4 °C overnight. The following day, the membranes were washed three times with 20 mL of wash buffer provided in the kit. Next, the membrane was transferred into a 4-well multi-dish that contains the reconstituted detection antibody cocktails, and it was incubated for an hour on a shaker. Then, the membrane was again washed with a washing buffer three times. Two millilitres of Streptavidin-HRP was added onto the membrane followed by incubation for 30 min. Then, the membrane was washed three times. Afterward, the membrane was loaded with 1.0 mL of Chemi Reagent Mix and then the membrane was scanned using ChemiDoc XRS (Bio-Rad, Hercules, CA, USA).

[4] = system: apoptosis-related proteins in SW620; assay: Human apoptosis proteome profiler; assay type: cell-based; details: SW620, DMCH (IC50) for 48 h
Protocol: as §2

HT29 [5] = assay: MTT cell viability assay; assay type: cell-based; details: Homo sapiens, HT-29
Protocol: (§3) Both SW620 and HT29 cells were grown in an incubator at 37 °C under 5% CO2 condition with their respective media. After the cells were harvested, they were counted and seeded at 1 × 10^5 cells per well in a 96-well plate overnight before being treated with DMCH. The following day, cells were treated with various concentrations of DMCH. […] Following incubation for the designated time period, 20 μL of (5 mg/mL) MTT 3-[4, 5-dimethylthiazol-2-yl]-2, 5 diphenyltetrazolium bromide (Merck, Kenilworth, NJ, USA) reagent was added into each well and then cells were incubated again for another 3 to 4 h. Next, the solution was removed and 100 μL of dimethyl sulfoxide (DMSO) was added into the wells. Afterward, the plate was read at 575 nm using a microtiter plate reader (μQuant, Bio-Tek Instrument, Winooski, VT, USA). The results were analysed as the percentage proliferation of the cells regarding the concentration of the sample treated. The following formula was used to determine the percentage of viable cells:
(§4) Percentage of viability (%) = (Absorbance of sample at 570 nm)/(Absorbance of control at 570 nm) × 100.

SW620 [6] = assay: MTT cell viability assay; assay type: cell-based; details: Homo sapiens, SW-620
Protocol: as §3, §4

HT29 [7] = assay: Annexin V/FITC assay (flow cytometry); assay type: cell-based, human; details: HT29, 72 h, DMCH at IC50
Protocol: (§5) The apoptosis effect on HT29 and SW620 cells was studied using an Annexin V fluorescence kit (BD Pharmingen, San Diego, CA, USA) according to the manufacturer’s instructions without any modifications. Briefly, cells were seeded for 24 h at a density of 2.0 × 10^5 cells per well in a 6-well plate. Then, the seeded cells were treated with the designated concentrations for 48 h and 72 h. After the 48 h (or 72 h) of treatment, the treated cells were harvested and collected as a pellet. Next, the pellet was resuspended in 400 μL of binding buffer and stained with 5 μL of FITC-Annexin-V and 5 μL of PI provided in the kit. Afterward, the cells were analysed using a Novocyctes flow cytometer (ACEA Biosciences Inc., San Diego, CA, USA).

SW620 [8] = assay: Annexin V/FITC assay (flow cytometry); assay type: cell-based, human; details: SW620, 72 h, DMCH at IC50
Protocol: as §5

Splenocyctes = assay: MTT cell viability assay on normal cells; assay type: cell-based; details: splenocytes
HT29 [9] = assay: Cell cycle analysis by flow cytometry; assay type: cell-based, human; details: HT29, 72 h
Protocol: (§6) The effect of the DMCH sample on the cell cycle of HT29 and SW620 cells was investigated using flow cytometry cell cycle analysis. Cell cycle assay was carried out using the CycleTEST Plus DNA Reagent Kit according to the instructions (BD Pharmingen, San Diego, CA, USA). The cells were seeded at a density of 2.0 × 10^5 cells/well overnight. Then, cells were treated with different dosages of DMCH based on the concentration results of the MTT assay for 48 h and 72 h. After the treatment, cells were collected, and the pellet was resuspended in 200 μL of trypsin (solution A) and RNAse (solution B) for 10 min each followed by 250 μL of propidium iodide (solution C) for 15 min. After that, flow cytometric analysis was performed within 3 h using a Novocytes flow cytometer (ACEA Biosciences Inc., San Diego, CA, USA).

SW620 [10] = assay: Cell cycle analysis by flow cytometry; assay type: cell-based, human
Protocol: as §6

[11] = Splenocyte, 24 h, read-out: IC50
[12] = Splenocyte, 48 h, read-out: IC50
[13] = Splenocyte, 72 h, read-out: IC50

IC50 (HT29 [5]; HT29, 24 h, read-out: IC50): > 30 µM
IC50 (HT29 [5]; HT29, 48 h, read-out: IC50): 9.8 ± 0.553 µM
IC50 (HT29 [5]; HT29, 72 h, read-out: IC50): 8.2 ± 0.761 µM
IC50 (HT29 [5]; HT29, as printed in abstract, time not stated, read-out: inhibitory concentration (IC50)): 9.8 ± 0.55 µg/mL
IC50 (SW620 [6]; SW620, 24 h, read-out: IC50): > 30 µM
IC50 (SW620 [6]; SW620, 48 h, read-out: IC50): 7.5 ± 1.19 µM
IC50 (SW620 [6]; SW620, 72 h, read-out: IC50): 5 ± 0.157 µM
IC50 (SW620 [6]; SW620, as printed in abstract, time not stated, read-out: inhibitory concentration (IC50)): 7.5 ± 1.19 µg/mL
SMILES: COc1cccc(/C=C2\CCC/C(=C\c3cccc(OC)c3OC)C2=O)c1OC [DMCH, (2E,6E)-2,6-bis(2,3-dimethoxybenzylidene) cyclohexanone]
proportion of cells that exhibited early apoptosis and late apoptosis (HT29 [1]): significantly higher
proportion of cells that exhibited early apoptosis and late apoptosis (SW620 [2]): significantly higher
Bad Regulation [3]: Up
Bax Regulation [3]: Up
Bcl x Regulation [3]: Down
Cytochrome c Regulation [3]: Up
Livin Regulation [3]: Down
Pro caspase 3 Regulation [3]: Up
SMAC/Diablo Regulation [3]: Up
Bad Regulation [4]: Up
Bax Regulation [4]: Up
Bcl x Regulation [4]: Up
Cytochrome c Regulation [4]: Down
Livin Regulation [4]: Down
Pro caspase 3 Regulation [4]: Down
SMAC/Diablo Regulation [4]: Down
Cytochrome c Relative Intensity (Fold Change) ([4]; vs control): −0.900 ± 0.006
Livin Relative Intensity (Fold Change) ([4]; vs control): −0.900 ± 0.040
SMAC/Diablo Relative Intensity (Fold Change) ([4]; vs control): −0.900 ± 0.070
early and late apoptotic/necrotic cells (HT29 [7]): 8.83 ± 0.42%
early and late apoptotic/necrotic cells (SW620 [8]): 15.70 ± 1.03%
IC50 (Splenocyctes; [11]): > 30 µM
IC50 (Splenocyctes; [12]): > 30 µM
IC50 (Splenocyctes; [13]): > 30 µM
IC50 (Splenocyctes; 24 h): no IC50 values observed
IC50 (Splenocyctes; 48 h): no IC50 values observed
IC50 (Splenocyctes; 72 h): no IC50 values observed
cells in sub-G0/G1 phase (HT29 [9]): 10.96± 0.94%
cells in sub-G0/G1 phase (SW620 [10]; SW620, 48 h): 0.15 ± 0.05%
cells in sub-G0/G1 phase (SW620 [10]; SW620, 72 h): 73.24 ± 1.65%

IC50 (HT29 [5]; HT29, 24 h, read-out: IC50): > 30 µM
IC50 (HT29 [5]; HT29, 48 h, read-out: IC50): 26.7 ± 1.53 µM
IC50 (HT29 [5]; HT29, 72 h, read-out: IC50): 20.7 ± 1.16 µM
IC50 (SW620 [6]; SW620, 24 h, read-out: IC50): > 30 µM
IC50 (SW620 [6]; SW620, 48 h, read-out: IC50): 18.6 ± 0.321 µM
IC50 (SW620 [6]; SW620, 72 h, read-out: IC50): 15.7 ± 1.52 µM
SMILES: COc1cc(/C=C/C(=O)CC(=O)/C=C/c2ccc(O)c(OC)c2)ccc1O [curcumin]
IC50 (Splenocyctes; [11]): > 30 µM
IC50 (Splenocyctes; [12]): > 30 µM
IC50 (Splenocyctes; [13]): > 30 µM
